We go through 21 compounds from patent publication US20230081426A1, “COMPOUNDS AND METHODS FOR KRAS MODULATION AND INDICATIONS THEREFOR” (Plexxikon Inc., priority 2020, published 2023).

The target of assay [1] is T1, G12C-mutant human KRAS (amino acid residues 1-188) (Homo sapiens, UniProt P01116, G12C).
T1 construct: G12D or G12C-mutant human KRAS (amino acid residues 1-188) with FLAG tag; made in house; host or cells: E. coli
Briefly: KRAS Binding Disruption Assay (AlphaScreen; biotinylated KRpep-2d analogue or RAF1-RBD), G12C. The conditions noted are these: geometric mean, read-out: KRAS GMean IC50 (uM) MUTATION: G12C. The method, then: Compound binding disrupts the interaction of KRpep-2d or RAF1-RBD with KRAS, leading to a decrease in Alpha signal.
All assay components were prepared in 20 mM HEPES (pH 7.5), 100 mM NaCl, 5 mM MgCl2, 0.01% Tween-20, and 0.01% BSA. Biotinylated analogues of KRpep-2d were custom synthesized. The binding disruption assays were performed using 5-20 nM of mutant KRAS and 5-20 nM of either biotinylated KRpep-2d analogue or RAF1-RBD. 19 μL of KRAS protein and 4 μL of biotinylated KRpep-2d or RAF1-RBD were added to the wells of a 384-well plate containing 1 μL of various concentrations of test compound or DMSO vehicle. 16 wells containing KRAS, biotinylated KRpep-2d or RAF1-RBD, and 5% DMSO served as high controls. 16 wells containing KRAS only and 5% DMSO served as low controls. Binding reactions were incubated for 1 hour at 25° C., then Anti-Flag Acceptor and Streptavidin Donor Alpha beads were added at a final concentration of 10 μg/mL for an additional hour at room temperature. Alpha signal was read out on a Perkin Elmer Envision HTS instrument. The percentage inhibition at individual compound concentrations relative to high and low controls was calculated. The data were analyzed by using nonlinear regression to generate IC50 values.
Background: Bead proximity is the source of the signal in Alpha formats.

For assay [2], the target named is T2, G12D-mutant human KRAS (amino acid residues 1-188) (Homo sapiens, UniProt P01116, G12D).
T2 construct: G12D or G12C-mutant human KRAS (amino acid residues 1-188) with FLAG tag; made in house; host or cells: E. coli
T2 sequence (P01116 1-188 isoform P01116-2 G12D): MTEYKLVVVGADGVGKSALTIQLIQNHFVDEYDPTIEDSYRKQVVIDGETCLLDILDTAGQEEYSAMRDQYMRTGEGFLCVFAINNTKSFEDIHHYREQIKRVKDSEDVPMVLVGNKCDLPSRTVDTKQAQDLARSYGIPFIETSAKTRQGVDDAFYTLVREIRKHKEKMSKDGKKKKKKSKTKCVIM
Briefly: KRAS Binding Disruption Assay (AlphaScreen; biotinylated KRpep-2d analogue or RAF1-RBD), G12D. Particulars: KRAS G12D; geometric mean; read-out: KRAS GMean IC50 (uM) MUTATION: G12D. The procedure, abridged: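 Mutant KRAS (5-20 nM) incubated 1 h at 25° C with test compound and 5-20 nM biotinylated KRpep-2d analogue or RAF1-RBD in 20 mM HEPES pH 7.5, 100 mM NaCl, 5 mM MgCl2, 0.01% Tween-20, 0.01% BSA.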

T1 sequence (P01116 1-188 isoform P01116-2 G12C): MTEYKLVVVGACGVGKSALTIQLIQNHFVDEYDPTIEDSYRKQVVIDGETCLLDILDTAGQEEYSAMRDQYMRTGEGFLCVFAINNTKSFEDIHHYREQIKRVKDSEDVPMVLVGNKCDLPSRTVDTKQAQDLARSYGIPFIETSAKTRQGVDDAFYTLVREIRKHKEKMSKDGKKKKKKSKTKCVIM

In general, IC50 refers to the concentration needed to halve the response being measured. As to `Oc1cc(-c2ccc3c(N4C[C@H]5CC[C@@H](C4)N5)nc(CNC4CC(O)C4)nc3c2)c2ccccc2c1` (stereo partly drawn) [P-0670, 4-(4-((1R,5S)-3,8-diazabicyclo[3.2.1]octan-3-yl)-2-(((3-hydroxycyclobutyl)amino)methyl)quin-azolin-7-yl)naphthalen-2-ol], the IC50 is 100 to 1000 µM in assay [1] and 0.0001 to 10 µM in assay [2].

`Oc1cc(-c2ccc3c(N4C[C@H]5CC[C@@H](C4)N5)nc(CN[C@H]4CCOC4)nc3c2)c2ccccc2c1` [P-0671, 4-(4-((1R,5S)-3,8-diazabicyclo[3.2.1]octan-3-yl)-2-((((S)-tetrahydrofuran-3-yl)amino)methyl)quinazolin-7-yl)naphthalen-2-ol]: the concentration for half-maximal inhibition (IC50) in assay [1] lay in the range of 10 to 100 µM; in assay [2], 0.0001 to 10 µM.

As for `Oc1cc(-c2ccc3c(N4CC5CCC(C4)N5)nc(CN[C@@H]4CCC[C@H]4O)nc3c2)c2ccccc2c1` [P-0672, 4-(4-((1R,5S)-3,8-diazabicyclo[3.2.1]octan-3-yl)-2-((((1R,2R)-2-hydroxycyclopentyl)amino)methyl)quin-azolin-7-yl)naphthalen-2-ol], the concentration for half-maximal inhibition (IC50) is 10 to 100 µM in assay [1] and 0.0001 to 10 µM in assay [2].

As for `Oc1cc(-c2ccc3c(N4C[C@H]5CC[C@@H](C4)N5)nc(CNC4CC4)nc3c2)c2ccccc2c1` [P-0673, 4-(4-((1R,5S)-3,8-diazabicyclo[3.2.1]octan-3-yl)-2-((cyclopropylamino)methyl)quinazolin-7-yl)naphthalen-2-ol], the values for the IC50 in assay [1] and in assay [2] were 10 to 100 µM and 0.0001 to 10 µM, respectively.

Take `NCCCN1CCC[C@H]1COc1nc(N2C[C@H]3CC[C@@H](C2)N3)c2ccc(-c3cc(O)cc4ccccc34)c(F)c2n1` [P-0675, 4-(2-(((S)-1-(3-aminopropyl)pyrrolidin-2-yl)methoxy)-4-((1R,5S)-3,8-diazabicyclo[3.2.1]octan-3-yl)-8-fluoroquinazolin-7-yl)naphthalen-2-ol]: the IC50 in assay [1] and in assay [2] was 0.0001 to 10 µM in each case.

As for `O=C(NCCCN1CCC[C@H]1COc1nc(N2C[C@H]3CC[C@@H](C2)N3)c2ccc(-c3cc(O)cc4ccccc34)c(F)c2n1)OCc1ccccc1` [P-0676, benzyl (3-((S)-2-(((4-((1R,5S)-3,8-diazabicyclo[3.2.1]octan-3-yl)-8-fluoro-7-(3-hydroxynaphthalen-1-yl)quinazolin-2-yl)oxy)methyl)pyrrolidin-1-yl)propyl)carbamate], the 50% inhibitory concentration (IC50) in assay [1] was 10 to 100 µM; in assay [2], 0.0001 to 10 µM.

`O=C(OCc1ccccc1)N1CCC[C@H]1COc1nc(N2C[C@H]3CC[C@@H](C2)N3)c2ccc(-c3cc(O)cc4ccccc34)c(F)c2n1` [P-0677, benzyl (S)-2-(((4-((1R,5S)-3,8-diazabicyclo[3.2.1]octan-3-yl)-8-fluoro-7-(3-hydroxynaphthalen-1-yl)quinazolin-2-yl)oxy)methyl)pyrrolidine-1-carboxylate]: the IC50 was 10 to 100 µM in assay [1] and 0.0001 to 10 µM in assay [2].

As to `Fc1ccc2[nH]cc(-c3ccc4c(N5C[C@H]6CC[C@@H](C5)N6)nc(OCC56CCCN5CCC6)nc4c3F)c2c1Cl` [P-0678, 4-((1R,5S)-3,8-diazabicyclo[3.2.1]octan-3-yl)-7-(4-chloro-5-fluoro-1H-indol-3-yl)-8-fluoro-2-((tetrahydro-1H-pyrrolizin-7a(5H)-yl)methoxy)quinazoline], the IC50 in assay [1] and in assay [2] was 0.0001 to 10 µM in each case.

On to `Fc1cc2c(N3C[C@H]4CC[C@@H](C3)N4)nc(OCC34CCCN3CCC4)nc2c(F)c1-c1c[nH]c2ccc(F)c(Cl)c12` [P-0679, 4-((1R,5S)-3,8-diazabicyclo[3.2.1]octan-3-yl)-7-(4-chloro-5-fluoro-1H-indol-3-yl)-6,8-difluoro-2-((tetrahydro-1H-pyrrolizin-7a(5H)-yl)methoxy)quinazoline], for which the half-inhibitory concentration (IC50) in assay [1] and in assay [2] was 0.0001 to 10 µM in each case.

With `O=C1CCC2(CN(c3nc(N4C[C@H]5CC[C@@H](C4)N5)c4ccc(-c5cc(O)cc6ccccc56)c(F)c4n3)C2)N1` [P-0680, 2-(4-((1R,5S)-3,8-diazabicyclo[3.2.1]octan-3-yl)-8-fluoro-7-(3-hydroxynaphthalen-1-yl)quinazolin-2-yl)-2,5-diazaspiro[3.4]octan-6-one], the values for the IC50 in assay [1] and in assay [2] were 100 to 1000 µM and 0.0001 to 10 µM, respectively.

As to `Oc1cc(-c2ccc3c(N4C[C@H]5CC[C@@H](C4)N5)nc(NCC4(O)CCC4)nc3c2F)c2ccccc2c1` [P-0681, 4-(4-((1R,5S)-3,8-diazabicyclo[3.2.1]octan-3-yl)-8-fluoro-2-(((1-hydroxycyclobutyl)methyl)amino)quin-azolin-7-yl)naphthalen-2-ol], the results for the concentration for half-maximal inhibition (IC50) in assay [1] and in assay [2] were 100 to 1000 µM and 0.0001 to 10 µM, respectively.

For the compound `Oc1cc(-c2ccc3c(N4C[C@H]5CC[C@@H](C4)N5)nc(N4CC5(CCCN5)C4)nc3c2F)c2ccccc2c1` [P-0682, 4-(4-((1R,5S)-3,8-diazabicyclo[3.2.1]octan-3-yl)-8-fluoro-2-(2,5-diazaspiro[3.4]octan-2-yl)quinazolin-7-yl)naphthalen-2-ol], the values for the 50% inhibitory concentration (IC50) in assay [1] and in assay [2] were 10 to 100 µM and 0.0001 to 10 µM, respectively.

Turning to `CC(C)(O)C1CN(c2nc(N3C[C@H]4CC[C@@H](C3)N4)c3ccc(-c4cc(O)cc5ccccc45)c(F)c3n2)C1` [P-0683, 4-(4-((1R,5S)-3,8-diazabicyclo[3.2.1]octan-3-yl)-8-fluoro-2-(3-(2-hydroxypropan-2-yl)azetidin-1-yl)quinazolin-7-yl)naphthalen-2-ol], the IC50 in assay [1] is 100 to 1000 µM; in assay [2] it was 0.0001 to 10 µM.

As for `CN1CCN(c2nc(N3C[C@H]4CC[C@@H](C3)N4)c3ccc(-c4cc(O)cc5ccccc45)c(F)c3n2)CC1` [P-0684, 4-(4-((1R,5S)-3,8-diazabicyclo[3.2.1]octan-3-yl)-8-fluoro-2-(4-methylpiperazin-1-yl)quinazolin-7-yl)naphthalen-2-ol], the IC50 in assay [1] was 100 to 1000 µM; in assay [2], 0.0001 to 10 µM.

Regarding `Oc1cc(-c2ccc3c(N4C[C@H]5CC[C@@H](C4)N5)nc(N4C[C@@H](O)[C@H](O)C4)nc3c2F)c2ccccc2c1` [P-0685, (3R,4R)-1-(4-((1R,5S)-3,8-diazabicyclo[3.2.1]octan-3-yl)-8-fluoro-7-(3-hydroxynaphthalen-1-yl)quinazolin-2-yl)pyrrolidine-3,4-diol], the IC50 in assay [1] lay in the range of 10 to 100 µM; in assay [2], 0.0001 to 10 µM.

On to `OCC1(CO)CN(c2nc(N3C[C@H]4CC[C@@H](C3)N4)c3ccc(-c4cc(O)cc5ccccc45)c(F)c3n2)C1` [P-0686, (1-(4-((1R,5S)-3,8-diazabicyclo[3.2.1]octan-3-yl)-8-fluoro-7-(3-hydroxynaphthalen-1-yl)quinazolin-2-yl)azetidine-3,3-diyl)dimethanol], for which the IC50 in assay [1] lay within 100 to 1000 µM; in assay [2], 0.0001 to 10 µM.

Regarding `Oc1cc(-c2ccc3c(N4C[C@H]5CC[C@@H](C4)N5)nc(N4C[C@@H](O)[C@@H](O)C4)nc3c2F)c2ccccc2c1` [P-0687, (3S,4R)-1-(4-((1R,5S)-3,8-diazabicyclo[3.2.1]octan-3-yl)-8-fluoro-7-(3-hydroxynaphthalen-1-yl)quinazolin-2-yl)pyrrolidine-3,4-diol], the IC50 in assay [1] lay within 100 to 1000 µM; in assay [2], 0.0001 to 10 µM.

Consider `Oc1cc(-c2ccc3c(N4CC5CCC(C4)N5)nc(OCC4CCCC4O)nc3c2F)c2ccccc2c1` [P-0688, 4-(4-((1R,5S)-3,8-diazabicyclo[3.2.1]octan-3-yl)-8-fluoro-2-((2-hydroxycyclopentyl)methoxy)quinazo-lin-7-yl)naphthalen-2-ol], for which the IC50 in assay [1] was 10 to 100 µM; in assay [2] it was 0.0001 to 10 µM.

For `Oc1cc(-c2ccc3c(N4C[C@H]5CC[C@@H](C4)N5)nc(OCCn4cncn4)nc3c2F)c2ccccc2c1` [P-0689, 4-(2-(2-(1H-1,2,4-triazol-1-yl)ethoxy)-4-((1R,5S)-3,8-diazabicyclo[3.2.1]octan-3-yl)-8-fluoroquinazolin-7-yl)naphthalen-2-], the results for the 50% inhibitory concentration (IC50) in assay [1] and in assay [2] were 10 to 100 µM and 0.0001 to 10 µM, respectively.

Take `Oc1cc(-c2ccc3c(N4C[C@H]5CC[C@@H](C4)N5)nc(OCCn4cccn4)nc3c2F)c2ccccc2c1` [P-0690, 4-(2-(2-(1H-pyrazol-1-yl)ethoxy)-4-((1R,5S)-3,8-diazabicyclo[3.2.1]octan-3-yl)-8-fluoroquinazolin-7-yl)naphthalen-2-ol]: the values for the IC50 in assay [1] and in assay [2] were 10 to 100 µM and 0.0001 to 10 µM, respectively.

With `Oc1cc(-c2ccc3c(N4C[C@H]5CC[C@@H](C4)N5)nc(OCCn4cccc4)nc3c2F)c2ccccc2c1` [P-0691, 4-(2-(2-(1H-pyrrol-1-yl)ethoxy)-4-((1R,5S)-3,8-diazabicyclo[3.2.1]octan-3-yl)-8-fluoroquinazolin-7-yl)naphthalen-2-ol], the 50% inhibitory concentration (IC50) in assay [1] is 10 to 100 µM; in assay [2], 0.0001 to 10 µM.
